Results: US6689762B1, “Composition and methods for treatment of HIV infection” (Enzon Pharmaceuticals, Inc., priority 1998, dated 2004)
Several values for one entry are separate records, joined by “and”; a condition that tells them apart may be missing. Equal entries are not always repeated.

Experiments:
[1] = system: HIV-RNA in supernatant of HIV-1 infected CEM/0 T-cells; experiment: HIV-1 quantitative RNA assay (HIV-1 Monitor) in supernatants of CEM/0 T-cells; format: cell-based; design: inhibition of HIV-RNA in the supernatants in comparison to untreated control / % OF CONTROL / % control: concentration or dose not given beside the values
Description: It should be noted that “PEG” in Table 3 represents PEG-ASNase.
Materials and Methods: The cell line used for these studies is CEM/0, a human T-cell leukemic cell line. PEG-ASNase (ONCASPAR) is provided by Rhone-Poulenc Rorer. Saquinavin is commercially available. AZT is purchased from Sigma. MISID, a ribonucleotide reductase inhibitor, is as described in Nandy P, Lien E J, Avramis V I, Med. Chem. Res. 1995, 5:664-679. RPMI-1640 media (Irvine Scientific, Irvine, Calif.), is enriched with 10% Fetal Calf Serum (Gemini Biosource, Calabasas, Calif.), 5% 1M Hepes Buffer solution and 5% Non-essential amino acids (Irvine Scientific, Irvine, Calif.). The drug concentrations used are as follows:
Briefly, 3×10^6 cells/ml are stimulated with PHA+ media for 48 hours at 37° C. with 5% CO2. Also, the same number of cells are incubated in PHA free media for 48 hours to serve as the negative control. At this point the cells are inoculated with the HIV-1 virus as per standard protocol. Note that in this experiment, the HIV containing supernatant from the PHA-stimulated healthy human peripheral mononuclear cells (PBMC) is not removed from the PHA-stimulated CEM/0 cell culture. […] These virus particles are continuously released by already infected T-cells and/or lymph nodes of patients.
The experimental drugs are added to the cells in the appropriate concentrations at the same time as viral inoculation or 90 minutes after the viral incubation, a time sufficient for the T-cells to be infected and start producing new HIV-1 virus particles. The control cells are resuspended in drug-free media for the duration of the exposure which lasted seven days. Aliquots of media from the control flasks only are obtained on day 5 post Rx. At day seven, three 1 ml each, aliquots of media are removed from the flasks and stored under liquid nitrogen. In addition, the remaining cells are split into three and then pelleted and stored at −80° C. Supernatant specimens are obtained form these T-cell cultures and are frozen at −80° C. The samples produced from this experiment are itemized. The cell pellets of the cellular cultures (see Experiment 9) from the 90 minute viral incubation flasks are assayed for HIV-RNA quantitative assay using a kit for the assay, non-radioactive. […] The standard curve is determined and the HIV-RNA levels for the experimental samples are calculated and reported previously.
This experiment is carried out using a similar procedure, and the same concentrations of materials as in Experiment 10, however the exposure of HIV-RNA in T-cell supernatants to a combination of PEG-ASNase, Saquinavir, AZT and 3TC is measured. It should be noted that “PEG” in Table 10 represents PEG-ASNase.

[2] = system: HIV-RT levels of HIV-1 infected CEM/0 cell pellets; experiment: HIV-RT ELISA (Reverse Transcriptase Assay, non-radioactive) in cell pellets of HIV-1 infected CEM/0 T-cells; format: cell-based; details: Table 9
Description: The following is a general procedure for the HIV-reverse transcriptase assay:
The cell line used for these studies is CCRF/CEM/O, a human T-leukemic cell line. PEG-ASNase (ONCASPAR) is provided by Rhone-Poulenc Rorer. Saquinavir is commercially available. RPMI-1640 media (Irvine Scientific, Irvine, Calif.) is enriched with 10% Fetal Calf Serum (Gemini Biosource, Calabasas, Calif.), 5% 1M Hepes Buffer solution and 5% Non-essential amino acids (Irvine Scientific, Irvine, Calif.). The drug concentrations used are as follows:
Briefly, 2×10^6 cells/ml are stimulated with PHA+ media for 48 hours at 37° C. with 5% CO2. Also, the same number of cells are incubated in PHA(phytohemagglutinin) free media for 48 hours to serve as the negative control. At this point the cells are inoculated with the HIV-1 virus as per standard protocol. PEG-ASNase and/or Saquinavir are added to the cells in the appropriate concentrations (see above). The control cells are resuspended in drug-free media for the duration of the exposure which lasted seven days. At day five, two 1 ml aliquots of media are removed from the flasks and stored under liquid nitrogen. At day seven, two more 1 ml aliquots of media are removed from the flasks and stored under liquid nitrogen. In addition, the remaining cells are pelleted and stored at −80° C.
The samples produced from this experiment are itemized and then assayed for HIV-RT using the Reverse Transcriptase Assay, non-radioactive (Boehringer Mannheim). The standard curve is determined and the HIV-RT levels for the experimental samples are calculated.
This experiment is carried out using a similar procedure, and the same concentrations of materials as in Experiment 7, however the exposure of the HIV virus in T-cell pellets to PEG-ASNase and Saquinavir alone, and in combination is measured. It should be noted that “PEG” in Table 2a represents PEG-ASNase. […]

For `Nc1ccn([C@@H]2CS[C@H](CO)O2)c(=O)n1` [3TC, lamivudine], the MEAN ([1]; Table 10) was 1752 copies/mL, the “N*” value ([1]; Table 10, per specimen, day 7 post Rx, PEG 0.400 IU/ml, SAQ 25 uM, AZT 1 uM, 3TC 1 uM, combinations PEG 0.233 IU/ml + SAQ 14.52 uM) was 1700 copies/mL and 1836 copies/mL and 1719 copies/mL and the “% OF CONTROL” value ([1]; Table 10 and Experiment 11) was 39.58%. For the same molecule, the “MEAN X3 (HIV-RT)” value [2] was 0.004 ng/well.
